Literature values in patent US20260041141A1, “AEROSOL-GENERATING ARTICLE WITH AN ISOLATED AVERSIVE COMPONENT” (PHILIP MORRIS PRODUCTS S.A., priority 2022, published 2026).
Structures can show the parent of a compound that is named as a salt.

Details: reciprocal of the dilution that still has a bitter taste; quinine hydrochloride reference set at 200,000

Question: Which Bitterness value does the source give for `C[C@@]12C[C@@H](c3ccoc3)OC(=O)[C@@H]1CC[C@]1(C)[C@H]2[C@@H]2C=C[C@@]1(O)C(=O)O2` [Columbin] here?
Answer: 60,000,000

Question: With `C=C[C@H]1C[N@@]2CC[C@H]1C[C@H]2[C@H](O)c1ccnc2ccc(OC)cc12` [Quinine hydrochloride] as the compound, how does the Bitterness value read?
Answer: 200,000

Question: With Amarogentin as the compound, how does the Bitterness value read?
Answer: 58,000,000

Question: For `CC1=C[C@H]2[C@H]3[C@H](C(C)=C4[C@H]5OC(=O)[C@@H](C)[C@@H]5CC[C@](C)(O)[C@@H]43)[C@@]13[C@@H]2[C@@](C)(O)CC[C@H]1[C@H](C)C(=O)O[C@@H]13` [Absinthin], which Bitterness value is on record?
Answer: 3,000,000

Question: For `COC1=C[C@@H](C)[C@@H]2C[C@H]3OC(=O)C[C@H]4C(C)=C(OC)C(=O)[C@H]([C@@]2(C)C1=O)[C@@]34C` [Quassin], which Bitterness value is on record?
Answer: 13,000,000
